Assay results reported in patent publication US20250213649A1, “PEPTIDE HAVING ANTI-INFLAMMATORY AND ANTI-FIBROTIC ACTIVITIES AND USE THEREOF” (CAREGEN CO., LTD., priority 2022, published 2025).

What was measured:
MRC-5 cells = assay: Inhibition of LPS-induced inflammatory cytokine gene expression, RT-PCR, MRC-5 cells; assay type: cell-based; settings: 5 μg/ml LPS, peptide 10, 50, 100, 500 μM, 24 hours, RT-PCR (FIG. 1)
Procedure: MRC-5 cells (lung fibroblast cells) were seeded at 3×10^5 cells/well in a 12-well plate and used in the experiment. After culturing for 1 day with a culture medium containing 10% FBS, the culture medium was replaced with a culture medium without containing FBS to induce starvation for 4 hours. A normal group without being treated with any substances, a group treated with 5 μg/ml of LPS (Sigma Aldrich) (negative control group), groups treated with 5 μg/ml of LPS and the peptide of Production Example 1 (10, 50, 100, 500 μM), and a group treated with 5 μg/ml of LPS and 10 μM of Dexamethasone (DEX) (positive control group) were treated with active substances and drugs respectively, and then RNA was extracted after 24 hours to carry out RT-PCR. RNA was extracted from MRC-5 cells using an easy-BLUE™ Total RNA extraction kit (Qiagen, Germany). The extracted RNA was converted into cDNA with RT-PCR premix (iNtRON Biotechnology, Seongnam, Korea). After preparing a reaction mixture with PCR premix (iNtRON Biotechnology, Seongnam, Korea) and primers for each gene, PCR was carried out using a PCR machine (Eppendorf, Germany). Next, the mRNA expression pattern was determined by agarose gel electrophoresis. The base sequences of the primers used in the experiment are listed in [Table 2] below.

A549 cells [1] = assay: Western blotting of LPS-induced inflammatory cytokine/signaling proteins, A549 cells; assay type: cell-based, human; settings: LPS 5 μg/ml, peptide 10, 50, 100, 500 μM, 24 hours, Western blot (FIG. 4a, 4b)
Procedure: A549 cells (human alveolar basal epithelial cells) were seeded at 3×10^5 cells/well in a 6-well plate and used in the experiment. After culturing for 1 day with a culture medium containing 10% FBS, the culture medium was replaced with a culture medium without containing FBS to induce starvation for 4 hours. Cells of a normal group without being treated with any substances, a group treated with LPS (5 μg/ml) (Sigma Aldrich) (negative control group), groups treated with LPS (5 μg/ml) and the peptide of Production Example 1 (10, 50, 100, 500 μM), and a group treated with LPS (5 μg/ml) and 10 μM of Dexamethasone (DEX) (positive control group) were treated with active substances and drugs respectively and then cultured for 24 hours. The cultured cells of each treatment group and control group were lysed by adding a lysis buffer, and then centrifugation was carried out at 4° C. at 12,000 rpm for 30 minutes to obtain proteins, which were subsequently quantified using a BCA Protein Assay kit (Sigma). The proteins were subjected to SDS-PAGE (sodium dodecyl sulfate-polyacrylamide gel electrophoresis) and then subjected to electrotransfer to a membrane. The membrane to which the proteins were attached was treated with 5% skim milk for blocking and then subjected to a reaction with a primary antibody overnight at 4° C. After washing with PBS-T, the membrane was subjected to a reaction with a secondary antibody at room temperature for 1 hour, washed again with PBS-T, and then visualized by a Western detection reagent (Elpis Biotech, Daejeon, Korea) using Gel Doc (Bio-Rad, Hercules, CA, USA). The antibodies used in the experiment are as follows. An Anti-IL-1β antibody: (Cell signaling technology (CST), USA), an anti-IL-6 antibody: (Santa Cruz Biotechnology, USA), an anti-COX2 antibody: (Santa Cruz Biotechnology, USA), an anti-Phospho-PI3K antibody: (Cell signaling technology (CST), USA), an anti-Phospho-AKT antibody: (Cell signaling technology (CST), USA), an anti-Phospho-ERK antibody: (Cell signaling technology (CST), USA), and an anti-β-Actin antibody: (Santa Cruz Biotechnology, USA).

A549 cells [2] = assay: ELISA of inflammatory cytokine proteins induced by IL-1β, A549 cells; assay type: cell-based, human; settings: IL-1β 2 ng/ml, peptide 10, 50, 100, 500 μM, 72 hours, culture supernatant (FIG. 9a-9c)
Procedure: A549 cells (human alveolar basal epithelial cells) were seeded at 2×10^5 cells/well in a 12-well plate and used in the experiment. After culturing for 1 day with a culture medium containing 10% FBS, the culture medium was replaced with a culture medium without containing FBS to induce starvation for 4 hours. Cells of a normal group (NON) without being treated with any substances, a group treated with IL-1β (2 ng/ml) (negative control group, NC), groups treated with IL-1β (2 ng/ml) and the peptide of Production Example 1 (10, 50, 100, 500 μM), and a group treated with IL-1β (2 ng/ml) and Dexamethasone (DEX) (10 μM) (positive control group) were treated with active substances and drugs respectively, and then cultured for 72 hours. After cell culture, the supernatant obtained by centrifuging the culture solution at 4° C. and 3,000 rpm for 10 minutes was subjected to ELISA analysis using an IL-6 Quantikine ELISA Kit (R&D systems), an IL-8 Quantikine ELISA Kit (R&D systems), and an IL-1β Quantikine ELISA Kit (R&D systems) according to the method of use in the kit instructions, and then the absorbance was measured at 450 nm using a microplate reader.

[3] = BLM-induced pulmonary fibrosis model, body weight change; assay type: in vivo; settings: BALB/c male mice with BLM-induced pulmonary fibrosis, peptide 1 mg/mouse intranasal three times a week for 14 days from 7th day (FIG. 13a)
Procedure: As shown in [Table 6] below, 8-week-old BALB/c male mice were divided into 4 groups of 5 mice each. On the 1st day, a Bleomycin solution ([…]/50 μl/mouse) was administered through the oropharynx to carry out one time of induction with BLM. Then, from the 7th day, the peptide of Production Example 1 (1 mg/mouse) was administered intranasally three times a week for 14 days, and Pirfeninone (2 mg/mouse) for a positive control group was administered orally three times a week for 14 days. On the 21st day of the induction with BLM, mice were sacrificed to obtain the bronchoalveolar lavage fluid and the lung tissue, which were used in the next analysis.

## KYLLVHRPYYRR [peptide of Production Example 1]
MRC-5 cells
  gene expression of IL-1β: decreases in a concentration-dependent manner
  gene expression of IL-6: decreases in a concentration-dependent manner
  gene expression of IL-8: decreases in a concentration-dependent manner
  gene expression of TNF-α: decreases in a concentration-dependent manner
A549 cells [1]
  expression of COX2 (protein): decreased the expression levels of proteins in a concentration-dependent manner
  expression of IL-1β (protein): decreased the expression levels of proteins in a concentration-dependent manner
  expression of IL-6 (protein): decreased the expression levels of proteins in a concentration-dependent manner
  expression of Phospho-AKT: decreased the expression levels of proteins in a concentration-dependent manner
  expression of Phospho-ERK: decreased the expression levels of proteins in a concentration-dependent manner
  expression of Phospho-PI3K: decreased the expression levels of proteins in a concentration-dependent manner
A549 cells [2]
  expression level of IL-1β (ELISA): decreases the expression levels of IL-1B, IL-6, and IL-8 in a concentration-dependent manner
  expression level of IL-6 (ELISA): decreases the expression levels of IL-1B, IL-6, and IL-8 in a concentration-dependent manner
  expression level of IL-8 (ELISA): decreases the expression levels of IL-1B, IL-6, and IL-8 in a concentration-dependent manner
[3]
  body weight: recovered again
